The source of these data is US9115145B2, “Tocotrienol derivatives and associated methods” (FIRST TECH INTERNATIONAL LIMITED, priority 2011, dated 2015).

Like-named read-outs stand apart in the source and are kept apart here.

Experiment [1] has as its system MCF7 human breast cancer cell line. The experiment in a line: MTT assay of MCF7 cells. In kind it is cell-based. The conditions noted are these: Homo sapiens, media containing 1% fetal bovine serum. The procedure: (§1) MDA-MB-231 and MCF7 cells were plated at a density of 8×10^3 cells/well and 10^4 cells/well in 96-well culture plates, respectively. The compounds were fed in serum free media containing 5% and 1% fetal bovine serum for MDA-MB-231 and MCF7 cells, respectively.

Experiment [2] concerns MDA-MB-231 human breast cancer cell line. The experiment in a line: MTT assay of MDA-MB-231 cells. In kind it is cell-based. The conditions noted are these: Homo sapiens, media containing 5% fetal bovine serum. On the procedure:
as §1
On the technique in general: Tetrazolium dyes change colour on reduction, which living cells bring about.

The subject of experiment [3] is MCF 10A non-tumorigenic mammary epithelial cells. The experiment in a line: MTT assay of MCF10A cells. In kind it is cell-based, human. The note with it: for IC50: Homo sapiens; for Selectivity index: IC50 for MCF 10A divided by IC50 for +SA cell line. On the procedure:
MCF 10A (ATCC cat # CRL-10317) normal human non-tumorigenic mammary epithelial cells were maintained in serum-free defined medium consisting of Dulbecco's modified Eagle's medium (DMEM)/F12 containing 5% horse serum, 1% penicillin/streptomycin, 0.5 μg/mL hydrocortisone, 100 ng/mL cholera toxin, 10 μg/mL insulin, and 20 ng/mL epidermal growth factor (rhEGF). For subculturing, cells were rinsed twice with sterile Ca2+ and Mg2+-free phosphate buffered saline (PBS) and incubated in 0.25% trypsin containing 0.025% EDTA in PBS for 5 min at 37° C. The released cells were centrifuged, re-suspended in fresh media and counted using a hemocytometer. For testing, MCF 10A cells were plated at a density of 10×10^4 cells/well. A stock solution of the compounds was prepared in DMSO. DMSO was added to all treatment media such that the final DMSO concentration was the same in all treatment groups within a given experiment and was always less than 0.1%. The compounds were fed in serum free media. MCF10A mammary epithelial cell's viable number was determined by MTT colorimetric assay. […] IC50 values were calculated by non-linear regression using statistical software. The selectivity index indicated in the table represents the IC50 value for the MCF 10A cell line divided by the IC50 value for the +SA cell line.

Experiment [4] has as its system MDA-MB-231 human breast cancer cells. The experiment in a line: Wound-healing assay (cell migration). In kind it is cell-based. The note with it: Homo sapiens; for inhibition at 5 µM: MDA-MB-231, 24 h, wound-healing assay; for IC50: MDA-MB-231, wound-healing assay, dose response, read-out: IC50 antimigratory activity. The procedure:
The highly metastatic human breast cancer MDA-MB-231 cells were cultured in RPMI 1640 medium containing 10 mM HEPES, 4 mM L-glutamine, 10% fetal bovine serum, penicillin (100 IU/mL), and streptomycin (50 μg/mL), and grown in a 5% CO2 atmosphere at 37° C. Cells were plated onto sterile 24-well and allowed to recover for a confluent cell monolayer formed in each well (>95% confluence). Wounds were then inflicted to each cell monolayer using a sterile 200 μL pipette tip. Media were removed, cells monolayers were washed twice with PBS, and then fresh media containing test compounds were added to each well. Test compounds were prepared in DMSO at 5 μM concentration and added to the plates, each in triplicate using DMSO as negative control. The incubation was carried out for 24 h under serum-starved conditions, after which media was removed and cells were fixed and stained using a staining composition sold under the trade name Diff Quick (Dade Behring Diagnostics, Aguada, Puerto Rico). The stain comprised a fixative reagent containing 1.8 mg/L triarylmethane dye in methyl alcohol; a first solution of 1 g/L xanthene dye, buffer, and sodium azide (0.01%) as preservative; and a second solution of 1.25 g/L Thiazine dye mixture (0.625 g/L azure A and 0.625 g/L methylene blue) and buffer. The number of cells migrated on the scratched wound were counted under the microscope in three or more randomly selected fields (magnification: 400×). Final results are expressed as mean±SEM per 400× field. The wound-healing assay is a simple method for the study of directional cell migration in vitro.
Compounds were tested for their ability to inhibit the migration of the highly metastatic MDA-MB-231 human breast cancer cells in the wound-healing assay using the procedure described above. Compounds 6, 10, 12, 13, 24, 26, 27, and 29 inhibited the migration of more than 50% of the human breast cancer cells MDA-MB-231 in the wound healing assay at 5 μM dose. […] The antimigratory activity of tocotrienols may be enhanced by a terminal aromatic functionality. The presence of electron withdrawing group, such as nitro in Compound 29, may eliminate the antiproliferative activity yet retain the antimigratory activity of the compound. While the electron donating groups, such as OH and OMe found in Compounds 23 and 26, respectively, retained both antiproliferative and antimigratory activities.
Utilizing similar procedures follow-up testing was conducted on a variety of compounds using a range of compound concentrations. The results of follow-up antimigratory testing are shown in FIG. 35B and Table III below with IC50 values calculated using statistical software.

For experiment [5], the system named is 60 human tumor cell lines. The experiment in a line: NCI in vitro screening against 60 human cell lines, single concentration. In kind it is cell-based. The conditions noted are these: 10 μM dose; negative values indicate cytotoxicity. On the procedure: Compounds selected from Compounds 3-44 were provided to the National Cancer Institute for in vitro screening against 60-human cell lines for their ability to inhibit the growth of tumor cells in a full panel representing nine different organs (blood, lung, colon, CNS, skin, ovary, kidney, prostate, and breast). The compounds were tested at a single concentration of 10 μM, and the percentages of growth inhibitions over the sixty tested cell lines were determined. Compounds showing the highest activity were chosen for secondary assays using five different compound concentrations.
The human tumor cell lines of the cancer screening panel were grown in RPMI 1640 medium containing 5% fetal bovine serum and 2 mM L-glutamine. For a typical screening experiment, cells are inoculated into 96 well microtiter plates in 100 μL at plating densities ranging from 5000 to 40,000 cells/well depending on the doubling time of individual cell lines. After cell inoculation, the microtiter plates are incubated at 37° C., 5% CO2, 95% air and 100% relative humidity for 24 hours prior to addition of experimental drugs. After 24 hours, two plates of each cell line are fixed in situ with Trichloroacetic acid (“TCA”), to represent a measurement of the cell population for each cell line at the time of drug addition. Experimental drugs are solubilized in dimethyl sulfoxide at 400-fold the desired final maximum test concentration and stored frozen prior to use. At the time of drug addition, an aliquot of frozen concentrate is thawed and diluted to twice the desired final maximum test concentration with complete medium containing 50 ng/mL gentamicin. An aliquot of 100 μL of this drug dilution is added to the appropriate microtiter wells already containing 100 μL of medium, resulting in the required final drug concentrations. Following drug addition, the plates are incubated for an additional 48 h at 37° C., 5% CO2, 95% air, and 100% relative humidity. For adherent cells, the assay is terminated by the addition of cold TCA. Cells are fixed in situ by the gentle addition of 50 μL of cold 50% (w/v) TCA (final concentration, 10% TCA) and incubated for 60 min at 4° C. The supernatant is discarded, and the plates are washed five times with tap water and air dried. Sulforhodamine B (SRB) solution (100 μL) at 0.4% (w/v) in 1% acetic acid is added to each well, and plates are incubated for 10 min at room temperature. After staining, unbound dye is removed by washing five times with 1% acetic acid and the plates are air dried. Bound stain is subsequently solubilized with 10 mM trizma base, and the absorbance is read on an automated plate reader at a wavelength of 515 nm. For suspension cells, the methodology is the same except that the assay is terminated by fixing settled cells at the bottom of the wells by gently adding 50 μL of 80% TCA (final concentration, 16% TCA). FIGS. 37-74 indicate the growth inhibition effects of selected Compounds against a variety of cell lines based on the above described testing configuration. FIGS. 37-74 present the Growth percent for a given compound against the cell lines and both values and a bar chart of the difference between the mean growth percent and the growth percent which is an indication of the selectivity of the compound for that particular cell line.

Experiment [6] has as its system +SA mammary epithelial cells. The experiment in a line: MTT assay of +SA cells (antiproliferative activity). Type of experiment: cell-based, mouse. The conditions noted are these: for antiproliferative activity against +SA mammary tumor cells (in words): described from FIG. 32 / text. The procedure: The antiproliferative activities of Compounds 3-44 against the highly metastatic malignant +SA mammary epithelial cells were evaluated by MTT assay. Materials for the assay were purchased from Sigma Chemical Company (St. Louis, Mo.) unless otherwise stated. The highly malignant +SA mouse mammary epithelial cell line was serially passaged at subconfluent cell density. The +SA mammary tumor cell line was derived from an adenocarcinoma that developed spontaneously in a BALB/c female mouse. +SA cells were maintained in serum-free defined medium consisting of Dulbecco's modified Eagle's medium (DMEM)/F12 containing 5 mg/mL bovine serum albumin (BSA), 10 […], 100 U/mL soybean trypsin inhibitor, 100 U/mL penicillin G, 0.1 mg/mL streptomycin, […], and 10 ng/mL epidermal growth factor. For subculturing, cells were rinsed twice with sterile Ca2+ and Mg2+-free phosphate buffered saline (PBS) and incubated in 0.05% trypsin containing 0.025% EDTA in PBS for 5 min at 37° C. The released cells were centrifuged, resuspended in fresh media and counted using hemocytometer. A stock solution of the compounds was prepared in DMSO. Once dissolved, this solution was added to a small volume of sterile 10% BSA in water and incubated overnight at 37° C. This solution conjugated to BSA was used to prepare various concentrations (0-40 μM) of tocotrienol analogs. DMSO was added to all treatment media such that the final DMSO concentration was the same in all treatment groups within a given experiment and was always less than 0.1%. For cytotoxic studies, cells were seeded at a density of 5×10^4 cells/well (+SA cells) or 1×10^5 cells/well (CL-S1 cells) (6 wells/group) in 24-well culture plates and allowed to grow in their respective control media. After 3 days incubation period (approximately 70% confluency), cells were divided equally into various treatment groups and exposed to their respective treatments for a 24 hours incubation period. Following the 24 hours treatment period, cell viability was measured using the MTT assay.
+SA Mammary epithelial cell viable number was determined by a 3-(4,5-dimethylthiazol-2yl)-2,5-diphenyl tetrazolium bromide (MTT) colorimetric assay. On the assay day, treatment medium was replaced with fresh control medium containing 0.42 mg/mL MTT, and the cells in 24-well plates were incubated at 37° C. for 4 hours. Afterward, the medium was removed, and the MTT crystals were dissolved in isopropyl alcohol (1 mL/well). The optical density of each sample was read at 570 nm on a microplate reader (SpectraCount, Packard BioScience Company), against a blank prepared from cell-free cultures. The number of cells/well was calculated against a standard curve prepared by plating various concentrations of cells, as determined by hemocytometer, at the start of each experiment.
Differences among the various treatment groups in +SA cell cytotoxic studies were determined by analysis of variance (ANOVA) followed by Dunnett's t-test. The difference of P<0.05 was considered to be statistically significant as compared with vehicle-treated controls unless separately described. Linear regression analysis of treatment effects on viable cell number in growth and cytotoxicity studies was used to determine the 50% growth inhibition concentration (IC50) for individual treatments.

[7] abbreviates: MCF-10A, MCF10A cells, Table II, non-linear regression, read-out: MCF10A (IC50).
The mark [8] stands for this setting: MCF 10A non-tumorigenic cells, Table I, read-out: IC50 MCF 10A.

The term IC50 denotes the concentration that inhibits the measured activity by half. In general, inhibition refers to the share of the control response that was lost under treatment. A higher inhibition goes with a response far below the control. For `CC(C)=CCC/C(C)=C/CC/C(C)=C/CC[C@]1(C)CCc2c3c(cc(C)c2O1)OCN(CCCO)C3` [Compound 13, 3-((R)-6,8-dimethyl-8-((3E,7E)-4,8,12-trimethyltrideca-3,7,11-trienyl)-9,10-dihydrochromeno[5,6-e][1,3]oxazin-2(1H,3H,8H)-yl)propan-1-ol], the IC50 in experiment [1] is more than 20 µM; in experiment [2], more than 10 µM; in experiment [3] (setting [7]) it was 6.5 µM; in experiment [3] (setting [8]), 6.5 µM; in experiment [4] it was 6 µM. In experiment [3], this compound had a Selectivity index of 3.61. The compound further returned an inhibition at 5 µM in experiment [4] of more than 50%. In experiment [5], the “mean percent growth across all 60 cell lines (mean 60)” value is given as “negative”.

Consider `CC(C)=CCC/C(C)=C/CC/C(C)=C/CC[C@]1(C)CCc2c3c(c(C)c(C)c2O1)OCN(CCc1ccc(O)cc1)C3` [Compound 26, 4-(2-((R)-5,6,8-trimethyl-8-((3E,7E)-4,8,12-trimethyltrideca-3,7,11-trienyl)-9,10-dihydrochromeno[5,6-e][1,3]oxazin-2(1H,3H,8H)-yl)ethyl)phenol], for which, in experiment [6], the “antiproliferative activity against +SA mammary tumor cells (in words)” value was “very high activities”. In addition, the IC50 in experiment [1] was 10.6 µM; in experiment [2], more than 5 µM; in experiment [3] (setting [7]) it was 8.5 µM; in experiment [3] (setting [8]), 8.5 µM; in experiment [4], 4.5 µM. In experiment [3], this compound yielded a Selectivity index of 5.67. Besides, the inhibition at 5 µM in experiment [4] was more than 50%.

For `CC(C)=CCC/C(C)=C/CC/C(C)=C/CC[C@]1(C)CCc2c3c(cc(C)c2O1)OCN(CCCCO)C3` [Compound 36, 4-((R)-6,8-dimethyl-8-((3E,7E)-4,8,12-trimethyltrideca-3,7,11-trienyl)-9,10-dihydrochromeno[5,6-e][1,3]oxazin-2(1H,3H,8H)-yl)butan-1-ol], the IC50 in experiment [1] is 16.3 µM; in experiment [2], more than 5 µM; in experiment [3] (setting [7]), 4.2 µM; in experiment [3] (setting [8]), 4.2 µM; in experiment [4], 2.2 µM. The same compound had a Selectivity index in experiment [3] of 2.34. Moreover, the “mean percent growth across all 60 cell lines (mean 60)” value in experiment [5] is listed as “negative”.

As for `CC(C)=CCC/C(C)=C/CC/C(C)=C/CC[C@]1(C)CCc2c3c(c(C)c(C)c2O1)OCN(Cc1ccccc1)C3` [Compound 6, (R)-2-benzyl-5,6,8-trimethyl-8-((3E,7E)-4,8,12-trimethyltrideca-3,7,11-trienyl)-1,2,3,8,9,10-hexahydrochromeno[5,6-e][1,3]oxazine], the IC50 is 1.2 to 2.2 µM in experiment [6] (Mus musculus, +SA cell, 24 hours treatment, read-out: IC50 antiproliferative activity against +SA mammary epithelial cells); more than 20 µM in experiment [1]; 27.3 µM in experiment [2]. For the same compound, the “antiproliferative activity against +SA mammary tumor cells (in words)” value in experiment [6] was “inactive”. The compound further returned an inhibition at 5 µM in experiment [4] of more than 50%.
